Experiments:
[1] = system: IL-13 dependent proliferation of TF-1.8 cells; assay: IL-13 dependent proliferation of TF-1.8 cells (luciferase); assay type: cell-based, human; conditions: 10 μg/ml, titration of IL-13 (FIG. 2A)
Text: Heparin inhibited the proliferation of a human IL-13 responsive cell line. This occurs at very low doses and is not due to a toxic effect of the heparin because other, similarly sulfated polysaccharides, at the same concentrations of IL-13 and polysaccharide have no effect. These experiments utilize the TF-1.8 cells. TF-1.8 cells are a subclone of the TF-1 cells that have been selected for growth in IL-4, and because IL-4 and IL-13 share a receptor these cells are also responsive to IL-13. TF-1 cells were originally established from a bone marrow sample from a person with severe pancytopenia. […]
TF-1.8 cells have been transfected with the firefly luciferase gene contained in the expression vector, pPGK-puromycin-luciferase (Coombe et al, J. Immunol. Methods 215:145-150, 1998). […] The cells are counted with a Coulter Z2 Particle Counter and Size Analyzer (Coulter Electronics, England) and routinely 2.5×10^4 cells are added to microplate wells that contain either no IL-13 (negative control) or various dilutions of IL-13. When the effect of PPS, or other sulfated polysaccharides is to be measured, the wells also contain various concentrations of these molecules. […]
PPS inhibited the proliferation of a human IL-13 responsive cell line. […] When the effect of PPS is to be measured, the wells also contain various concentrations of this molecule. […]

[2] = BIACORE binding of IL-13 proteins to immobilized heparin; conditions: surface plasmon resonance
Text: The optical phenomenon of surface plasmon resonance is used to monitor physical interactions between molecules. Passing a solution of a potential protein ligand (e.g. IL-13) over a sensor surface to which a target (e.g. heparin) is coupled monitors the real-time binding of protein ligands to the immobilized target. Detection is achieved by measuring refractive index changes very close to the sensor surface. When the refractive index is altered, the angle at which plasmon resonance occurs changes and this change directly correlates with the amount of protein interacting with the surface. A BIACORE 2000 sensor chip is conveniently used. It is very sensitive and its microfiuidics ensures that only small amounts of material are required.
Biotinylated heparin is immobilized on the biosensor chip. […] Solutions containing potential protein ligands of interest are injected over the sensor chip surface, and the binding is measured in real time (Femig, In: Proteoglycan protocols, Ed. R. V. Iozzo, Humana Press, Totowa, N.J., USA, 2001). Bacterially expressed recombinant human IL-13 (rhIL-13) readily binds to heparin immobilized by this method. […]
Site directed mutagenesis was performed on IL-13. […] Mutant IL-13 proteins were examined for their ability to bind heparin immobilized on a biosensor chip and binding was assessed using a BIACORE 2000 sensor chip.

TF-1 cells = assay: TF-1 cell proliferation induced by IL-13 proteins; assay type: cell-based, human
Method: The ability of sulfated xylans to inhibit IL-13 mediated cell proliferation is size dependent. These experiments utilized the TF-1 cell line from which the TF1.8 cells were derived. The assay is performed as described above with the TF1.8 cells the differences being the concentration of IL-13 required for cell growth and the fact that cell number is determined using a dye. Briefly, proliferation assays are carried out in 96-well microplates suitable for such assays. Cells are washed to remove any cytokine in the growth medium and then resuspended in RPMI/5% w/v FCS and routinely 2.5×10^4 cells are added to microplate wells that contain either no IL-13 (negative control) or various dilutions of IL-13. When the effect of the different sized sulfated xylans was measured, the wells also contained various concentrations of these molecules and the IL-13 concentration was held constant at 2.5 ng/ml. The cells proliferated for 48 hours, after which the number of cells present was quantified by staining with […] of the AQUEOUS ONE dye for 3 hours and then absorbance was read at 490 nm.
The IL-13R111 wild type and the IL-13Q111 variant are shown for comparison.
Details of the assay are given in Example 6.

IL-13 Rα2 = molecular target: T1, IL-13 Rα2 (Homo sapiens, UniProt Q14627); conditions: high affinity; cited from earlier work
T1 sequence (Q14627 27-380): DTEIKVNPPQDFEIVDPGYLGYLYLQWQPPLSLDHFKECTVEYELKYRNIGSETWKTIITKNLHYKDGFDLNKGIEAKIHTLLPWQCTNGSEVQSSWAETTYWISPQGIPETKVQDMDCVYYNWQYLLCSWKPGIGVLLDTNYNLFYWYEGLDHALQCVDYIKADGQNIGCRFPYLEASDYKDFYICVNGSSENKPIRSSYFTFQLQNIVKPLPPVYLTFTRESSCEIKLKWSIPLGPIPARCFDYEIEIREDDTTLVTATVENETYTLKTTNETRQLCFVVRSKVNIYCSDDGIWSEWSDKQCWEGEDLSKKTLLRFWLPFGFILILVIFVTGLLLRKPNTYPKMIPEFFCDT

IL-13Rα1 = molecular target: T2, IL-13Rα1 (Homo sapiens, UniProt P78552); conditions: low-moderate affinity; read-out: affinity of IL-13Rα1 by itself for IL-13; cited from earlier work
T2 sequence (P78552 22-427): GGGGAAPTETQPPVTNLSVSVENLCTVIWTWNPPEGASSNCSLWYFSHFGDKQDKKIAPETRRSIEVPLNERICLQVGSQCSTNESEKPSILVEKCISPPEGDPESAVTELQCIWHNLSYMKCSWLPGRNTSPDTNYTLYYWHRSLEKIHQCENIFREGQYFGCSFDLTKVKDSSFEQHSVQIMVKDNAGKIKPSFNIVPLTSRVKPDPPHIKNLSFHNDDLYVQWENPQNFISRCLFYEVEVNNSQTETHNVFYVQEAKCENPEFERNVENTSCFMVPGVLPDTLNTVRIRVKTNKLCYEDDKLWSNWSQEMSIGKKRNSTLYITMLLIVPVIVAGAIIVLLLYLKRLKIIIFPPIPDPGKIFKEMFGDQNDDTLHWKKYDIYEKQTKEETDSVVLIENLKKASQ

binding to heparin immobilized on BIACORE sensor chip ([2]; listed as rhIL-13) | binding to heparin immobilized on BIACORE sensor chip ([2]; listed as wild type IL-13) | Molecule | inhibition of IL-13 mediated cell proliferation [1] | Concentration of IL-13 required for 50% TF-1 cell proliferation ED50 ave (TF-1 cells) | cell proliferative activity in the TF-1 cell assay (TF-1 cells; FIG. 7A) | Kd (IL-13 Rα2) | Kd (IL-13Rα1)
 |  | O=S(=O)(O)OC[C@H]1O[C@@](COS(=O)(=O)O)(O[C@H]2O[C@H](COS(=O)(=O)O)[C@@H](OS(=O)(=O)O)[C@H](OS(=O)(=O)O)[C@H]2OS(=O)(=O)O)[C@@H](OS(=O)(=O)O)[C@@H]1OS(=O)(=O)O [sucrose octasulfate] | very little inhibitory activity |  |  |  | 
readily binds | binds heparin more strongly | IL-13 WT (R111): wild type human IL-13 with arginine in the 111 position; 1IJZ.pdb monomer in docking |  | 1.2 ng/mL | comparable | 0.5 to 1.2 nM | 2 to 10 nM

From patent publication US9964543B2, “Selection of medicaments that modulate the function and activity of interleukin 13” (GLYCAN BIOSCIENCES LLC, priority 2007, dated 2018)
